# Data from patent US12691070B2, “Cationic lipids and preparation method thereof” (RiboX Therapeutics HK Limited, priority 2023, dated 2026).
# What was measured:
# [1] = RNA encapsulation efficacy by Quant-IT Ribogreen kit; type: physicochemical; conditions: for Encapsulation Efficiency %: LNP with cirRNA (SEQ ID NO: 1); for Encapsulation Efficiency: LNP with mRNA (SEQ ID NO: 2)
# Summary of the method: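 Ribogreen read-out: encapsulation = 100% − (signal of intact RNA-LNPs / signal with Triton X-100). Particles: ionizable lipid:DSPC:Chol:DMG-PEG2000 50:10:38.5:1.5, ionizable lipid:ribonucleotide 15 or 6, final lipid 1.5–6 mM, PBS-dialyzed.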
# [2] = test system: BALB/C mice; experiment: Local tolerance determination by footpad injection; type: in vivo; conditions: cirRNA (SEQ ID NO: 1) LNP, 0.175 mg*kg-1 subcutaneous into the footpad, 24 hours post minus prior
# Description: 6-8 week old, female BALB/C mice were injected with 0.175 mg*kg-1 RNA LNPs by subcutaneous injection into the footpad. Prior to, and 24 hours post injections, injected footpad thickness was determined by a caliper.
# [3] = test system: Hep G2 cells; experiment: In vitro toxicity (CellTiter-Glo cell viability), Hep G2; type: cell-based;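 note: percent of untreated cells luminescence signal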
# Summary of the method: (§1)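 Toxicity of RNA-LNPs (1 μg/mL) is reported as cell viability, calculated from CellTiter-Glo luminescence measured at 72 hours after transfection.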
# [4] = test system: Alanine Aminotransferase (ALT); experiment: Liver enzyme elevation in serum, ALT; type: in vivo; conditions: cirRNA (SEQ ID NO: 1) LNPs, BALB/C mice, intravenous 0.5 MPK
# Description: (§2) 6-8 week old, female BALB/C mice were injected with 0.5 mg*kg-1 of RNA LNPs by intravenous injection. At 2 and 24 hours post injection, animals were bled and sera concentrations of Alanine Aminotransferase (ALT) and Aspartate Aminotransferase (AST) were determined by a blood chemistry analyzer.
# [5] = test system: Aspartate Aminotransferase (AST); experiment: Liver enzyme elevation in serum, AST; type: in vivo; conditions: cirRNA (SEQ ID NO: 1) LNPs, BALB/C mice, intravenous 0.5 MPK
# Description: as §2
# [6] = LNP size and polydispersity index (PDI) by dynamic light scattering; type: physicochemical; conditions: for Size: in nm (unit assumed)
# Summary of the method: (§3)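 Dynamic light scattering and zeta potential measurements were run on PBS-dialyzed LNPs, which had been formed by microfluidic mixing at 12 ml/min with final lipid at 1.5 mM to 6 mM. RNA content and percent encapsulation were determined by Ribogreen with and without Triton X-100.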
# [7] = test system: Hep G2 cells; experiment: In vitro expression of firefly-luciferase, Hep G2; type: cell-based
# Summary of the method: (§4)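 Both cell lines receive RNA-LNPs carrying firefly-luciferase RNA at 100 ng/mL. Lysis follows washing at 72 h post-transfection, and luciferase activity is then quantified on a luminometer using a commercial luciferase assay reagent.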
# [8] = test system: RAW 264.7 cells; experiment: In vitro expression of firefly-luciferase, RAW 264.7; type: cell-based
# Summary of the method: as §4
# [9] = test system: MCP-I; experiment: MCP-I cytokine elevation in serum; type: in vivo; conditions: cirRNA (SEQ ID NO: 1) LNPs, mice
# Description: 6-8 week old, female BALB/C mice were injected with 0.5 mg*kg-1 of RNA LNPs by intravenous injection. At 2 and 24 hours post injection, animals were bled and sera concentrations of MCP-I were determined by an immunoassay (Luminex).
# [10] = test system: BALB/C mice; experiment: In vivo expression, whole-body luminescence (IVIS)
# Description: 6-8 week old, female BALB/C mice were injected with 0.05 mg*kg-1 of RNA-LNPs encoding for firefly-luciferase by intravenous injection. At 6 hours post injection, animals were intraperitoneally injected with 15 mg/ml of Luciferin substrate and whole-body luminescence was determined by a bioluminescent in vivo imaging system (IVIS).
# [11] = test system: RAW 264.7 cells; experiment: In vitro toxicity (CellTiter-Glo cell viability), RAW 264.7; type: cell-based;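 note: percent of untreated cells luminescence signal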
# Summary of the method: as §1
# [12] = LNP zeta potential (Zetasizer); type: physicochemical
# Summary of the method: as §3
# [13] = cirRNA (SEQ ID NO: 1) LNPs, Hep G2 cells
# [14] = mRNA (SEQ ID NO: 2) LNP, 1 μg/mL, 72 hours post transfection
# [15] = cirRNA (SEQ ID NO: 1) LNPs, firefly-luciferase luminescence, Hep G2 cells
# [16] = mRNA (SEQ ID NO: 2) LNP, 100 ng/mL, 72 hours post transfection, luciferase activity
# [17] = cirRNA (SEQ ID NO: 1) LNPs, firefly-luciferase luminescence, RAW 264.7 cells
# [18] = cirRNA (SEQ ID NO: 1) LNPs, BALB/C mice
# [19] = mRNA (SEQ ID NO: 2) LNP, 0.05 mg*kg-1 intravenous, 6 hours post injection
# [20] = cirRNA (SEQ ID NO: 1) LNPs, RAW 264.7 cells
SMILES,Encapsulation Efficiency % [1] [%],Encapsulation Efficiency [1] [%],"Footpad Thickness (24 h−0 h, mm) [2] [mm]","In vitro Viability HepG2 [3, 13] [%]","In vitro Viability HepG2 [3, 14] [%]",ALT in Sera (IU/L) 2 hours After 0.5 MPK Injection [4] [IU/L],ALT in Sera (IU/L) 24 hours After 0.5 MPK Injection [4] [IU/L],AST in Sera (IU/L) 2 hours After 0.5 MPK Injection [5] [IU/L],AST in Sera (IU/L) 24 hours After 0.5 MPK Injection [5] [IU/L],PDI ([6]; LNP with cirRNA (SEQ ID NO: 1)),Size ([6]; LNP with cirRNA (SEQ ID NO: 1)),PDI ([6]; LNP with mRNA (SEQ ID NO: 2)),Size ([6]; LNP with mRNA (SEQ ID NO: 2)),"In vitro Expression HepG2 [7, 15]","In vitro Expression HepG2 [7, 16]","In vitro Expression RAW [8, 17]","In vitro Expression RAW [8, 16]",MCP-I in Sera 2 hours After 0.5 MPK Injection [9] [pg/mL],MCP-I in Sera 24 hours After 0.5 MPK Injection [9] [pg/mL],"In vivo Expression (Whole Body) [10, 18]",also measured
CCCCC/C=C\C/C=C\CCCCCCCCN(CCCCCCCC(=O)OC(CCCCCCCC)CCCCCCCC)CCCOC(=O)NCCN1CCCCC1 [Lipid 278],96,86.19,0.63,91,100,177.33,102.50,275.33,322.67,0.1471,91.92,0.1831,119,2.22E+07,3.75E+07,8.67E+06,6.01E+06,1815.67,1070.74,1.19E+08,"In vivo Expression (Whole Body) [10, 19]: 2.18E+08; In vitro Viability RAW [11, 20]: 132%; In vitro Viability RAW [11, 14]: 83%; Zeta (mV) ([12]; LNP with cirRNA (SEQ ID NO: 1)): 0.06032 mV; Zeta (mV) ([12]; LNP with mRNA (SEQ ID NO: 2)): 0.3567 mV"
"CCCCC/C=C\C/C=C\CCCCCCCCN(CCCCCCCC(=O)OC(CCCCCCCC)CCCCCCCC)CCOC(=O)NCCCN(CC)CC [Lipid 131, heptadecan-9-yl 3-ethyl-12-((9Z,12Z)-octadeca-9,12-dien-1-yl)-8-oxo-9-oxa-3,7,12-triazaicosan-20-oate]",96,90.68,1.17,83,89,51.17,44.57,161.27,83.17,0.22,74.78,0.1606,84.16,4.49E+06,5.66E+06,4.04E+06,9.55E+05,5003.82,16.42,2.27E+08,"In vivo Expression (Whole Body) [10, 19]: 4.52E+07; In vitro Viability RAW [11, 20]: 77%; In vitro Viability RAW [11, 14]: 96%; Zeta (mV) ([12]; LNP with cirRNA (SEQ ID NO: 1)): 5.61 mV; Zeta (mV) ([12]; LNP with mRNA (SEQ ID NO: 2)): 15.29 mV"
"CCCCC/C=C\C/C=C\CCCCCCCCN(CCCCCCCC(=O)OC(CCCCCCCC)CCCCCCCC)CCOC(=O)NCCN(C)C [Lipid 129, heptadecan-9-yl 2-methyl-10-((9Z,12Z)-octadeca-9,12-dien-1-yl)-6-oxo-7-oxa-2,5,10-triazaoctadecan-18-oate]",96,90,1.09,79,100,64.50,67.87,188.97,112.03,0.08,88.9,0.1768,55.55,8.56E+06,7.03E+06,8.78E+06,1.11E+06,3830.40,272.54,1.69E+09,"In vivo Expression (Whole Body) [10, 19]: 1.42E+08; In vitro Viability RAW [11, 20]: 7%; In vitro Viability RAW [11, 14]: 97%; Zeta (mV) ([12]; LNP with cirRNA (SEQ ID NO: 1)): 0.417 mV; Zeta (mV) ([12]; LNP with mRNA (SEQ ID NO: 2)): 0.5475 mV"
CCCCCCCCCC(=O)OCCCCCCCN(CCCCCCCCOC(=O)C(CCCCCC)CCCCCCCC)CCOC(=O)NCCN1CCCC1 (stereo not drawn) [Lipid 195],94,75.44,0.56,103,116,109.00,35.00,264.00,84.67,0.2474,94.75,0.1254,114.3,1.62E+05,1.23E+07,9.03E+03,1.67E+07,2643.00,78.52,3.91E+07,"In vivo Expression (Whole Body) [10, 19]: 1.63E+08; In vitro Viability RAW [11, 20]: 96%; In vitro Viability RAW [11, 14]: 77%; Zeta (mV) ([12]; LNP with cirRNA (SEQ ID NO: 1)): 6.123 mV; Zeta (mV) ([12]; LNP with mRNA (SEQ ID NO: 2)): 16.37 mV"
CCCCCCCCC(CCCCCCCC)OC(=O)CCCCCCCN(CCCCCCCCOC(=O)C(CCCCCC)CCCCCCCC)CCCOC(=O)NCCN(C)C (stereo not drawn) [Lipid 344],97,93.45,0.53,96,78,161.67,204.33,333.67,340.00,0.1332,98.08,0.1063,97.82,1.08E+07,8.78E+07,1.97E+06,1.59E+07,7150.00,946.87,7.43E+07,"In vivo Expression (Whole Body) [10, 19]: 2.15E+09; In vitro Viability RAW [11, 20]: 94%; In vitro Viability RAW [11, 14]: 88%; Zeta (mV) ([12]; LNP with cirRNA (SEQ ID NO: 1)): 2.343 mV; Zeta (mV) ([12]; LNP with mRNA (SEQ ID NO: 2)): 1.967 mV"
CCCCCCCCCCC(CCCCCCCC)COC(=O)CCCCCN(CCCCCC(=O)OCC(CCCCCCCC)CCCCCCCCCC)CCOC(=O)NCCN(C)C (stereo not drawn) [Lipid 170],97,86.13,0.95,31,124,62.53,66.47,175.67,120.57,0.08,96.82,0.0744,165.8,2.91E+07,2.23E+08,3.14E+06,2.87E+02,1322.04,922.24,3.35E+08,"In vivo Expression (Whole Body) [10, 19]: 1.02E+09; In vitro Viability RAW [11, 20]: 92%; In vitro Viability RAW [11, 14]: 82%; Zeta (mV) ([12]; LNP with cirRNA (SEQ ID NO: 1)): −0.455 mV; Zeta (mV) ([12]; LNP with mRNA (SEQ ID NO: 2)): 3.233 mV"
